In one assay the test system is WT mice. Briefly: Audiogenic seizure susceptibility, WT mice. Format: in vivo, mouse. Conditions: WT PND21. The protocol:
This trait was evaluated in PND21 mice after acute administration of the compounds or its vehicle, 30 min before starting the procedure. To measure audiogenic seizure sensitivity mice were placed individually into a novel environment, a glass cylinder (40 cm high, 16 cm diameter) and allowed to explore for 1 min. Next, a bell (100 dB) was rung for 30 sec and seizure activity scored according to the following scale: no response, 0; wild running, 1; clonic seizure, 2; tonic seizure, 3; status epilepticus/respiratory arrest/death, 4.
On postnatal day 21 (PND21) WT and Fmr1 KO mice were injected with CBDV (2, 10, 20 or 100 mg/kg) or vehicle, 30 min before exposure to a bell ring (100 dB). Mice exposed to this noise for 30 sec ceased from their normal exploratory behaviour and reacted with gradually to wild-running, clonic seizure, tonic seizure or death. The maximum response was annotated for each mouse as detailed in Table 2 below. A score was calculated according to the severity of the symptoms as explained in the Methods section.

A further assay concerns VPA-exposed rats. Briefly: Locomotor activity and repetitive behaviours (self-grooming), prenatal VPA model. Conditions: VPA offspring. In kind it is in vivo, rat. As for the experimental part:
Pregnant Sprague-Dawley rats (Charles River, Calco, Italy), received a single intraperitoneal injection of 500 mg/kg sodium valproate on the 12.5 day after conception, and control females were injected with physiological saline at the same time. Sodium valproate (Sigma Aldrich, Milan, IT) was dissolved in saline at a concentration of 250 mg/ml.
CBDV was dissolved in ethanol, cremophor and saline (1:1:18). Symptomatic treatment with CBDV at doses of 0.2, 2, 20, and 100 mg/kg/day i.p. was performed starting from PND 34 (early adolescence) till 56 (early adulthood), both in male and female offspring of dams injected with VPA 500 mg/kg (or vehicle) on day 12.5 after conception. At PND 56, a series of behavioural tests was performed in order to assess the effect of chronic CBDV on sociability, social novelty, short-term memory, locomotion and stereotyped/repetitive behaviours.
Locomotor activity and repetitive behaviours: Locomotor activity was recorded in an activity cage for 20 minutes with the aid of Anymaze program (Ugo Basile, Italy). In this period, repetitive behaviours (self-grooming and digging) were measured by an observer blind to the treatment group.

The test system of a further assay is Ube3am-/p+ (AS) mice. Briefly: Novel object recognition in Angelman syndrome model. Format: in vivo, mouse. To be noted: CBDV 20 mg/kg i.p.; AS mice at 7-8 weeks vs AS vehicle. The protocol:
Heterozygous mice with maternal deficiency of Ube3A (Ube3am−/p+) and wild type (Ube3am+/p+) were purchased from The Jackson Laboratory (Jackson code: B6.129S7-Ube3a tm1Alb/J) and maintained in a C57BL/6 background.
Drugs were dissolved in 1:1:18 ethanol:cremophor:0.9% saline, for intraperitoneal (i.p.) administration. Drug treatment was performed daily for 35 days. CBDV was administered at 20 mg/kg.
Novel Object Recognition: The novel object recognition assesses recognition memory in mice. The experiment started with the habituation period, during which mice were allowed to freely explore for 1 hour the apparatus which consists of a rectangular open box (40×30×30 cm width×length×height) made of grey polyvinyl chloride (PVC) illuminated by a dim light. The day after each mouse was allowed to explore two identical objects positioned in the back left and right corners for 5 min (acquisition). A video camera recorded the time spent on exploration of each object. […] The behaviour of mice was analyzed by an observer blind to the treatment. Data are expressed as percentage of recognition index (RI %), which was calculated as the percentage of the time spent exploring the novel object/time spent exploring the novel object+time spent exploring the familiar object×100.

As for `C=C(C)[C@@H]1CCC(C)=C[C@H]1c1c(O)cc(CCC)cc1O` [CBDV, Cannabidivarin], the “maximum response: Clonic seizure (number of mice)” value was found to be 0 with WT mice (CBDV 2 mg/kg acute, n = 6); 0 with WT mice (CBDV 10 mg/kg acute, n = 5); 0 in the assay with WT mice (CBDV 20 mg/kg acute, n = 6); 0 in the assay on WT mice (CBDV 100 mg/kg acute, n = 6). The “maximum response: Death (number of mice)” value was 0 in the assay with WT mice (CBDV 2 mg/kg acute, n = 6); 0 with WT mice (CBDV 10 mg/kg acute, n = 5); 0 in the assay on WT mice (CBDV 20 mg/kg acute, n = 6); 0 in the assay on WT mice (CBDV 100 mg/kg acute, n = 6). Besides, the “maximum response: Tonic seizure (number of mice)” value in the assay with WT mice (CBDV 2 mg/kg acute, n = 6) worked out at 0; in the assay on WT mice (CBDV 10 mg/kg acute, n = 5) it was 0; in the assay on WT mice (CBDV 20 mg/kg acute, n = 6), 0; in the assay on WT mice (CBDV 100 mg/kg acute, n = 6), 0. Besides, the “maximum response: Wild running (number of mice)” value in the assay on WT mice (CBDV 2 mg/kg acute, n = 6) was 0; in the assay with WT mice (CBDV 10 mg/kg acute, n = 5) it was 0; with WT mice (CBDV 20 mg/kg acute, n = 6), 1; in the assay with WT mice (CBDV 100 mg/kg acute, n = 6), 0. Also, the “repetitive behaviours (compulsive self-grooming) (FIG. 2A)” value in the assay on VPA-exposed rats (20 mg/kg in males) is “significantly normalize”; in the assay on VPA-exposed rats (2 and 100 mg/kg in females) it was “significantly normalize”. Moreover, the “locomotor activity (FIG. 2B)” value in the assay on VPA-exposed rats (2, 20 and 100 mg/kg in males) was “normalize”. Further, the “discrimination index, novel object recognition (FIG. 13)” value in the assay on Ube3am-/p+ (AS) mice is “significantly increased the discrimination index”.

The record behind these values is US11752111B2, “Use of cannabidivarin in the treatment of autism spectrum disorder, associated disorders and schizophrenia” (GW Research Limited, priority 2016, dated 2023).
